Experimental data from ChEMBL document CHEMBL1155665, “Euplectin and coneuplectin, new naphthopyrones from the lichen Flavoparmelia euplecta” (J Nat Prod, 2000).
Values after ≈ are worked out from the molar mass of the structure shown.

Tested on: P815
Assay: Antiproliferative activity against mouse P815 cells assessed as incorporation of [3H]thymidine after 18 hrs by liquid scintillation counting
Format: functional, cell-based

Compound `Cc1cc(=O)c2c(O)cc3cc4c(c(O)c3c2o1)C(=O)C=C4` [EUPLECTIN] has an IC50 of 1.67 µg/mL (≈ 5.68 µM).
